Data from ChEMBL document CHEMBL5576055, “Design, synthesis, and biological evaluation of chalcone acetamide derivatives against triple negative breast cancer” (Bioorg Med Chem Lett, 2024).
Each block holds one compound with its values, some of them ahead of it. Activity calls are given as the source filed them. No cut-off for these calls is given here.

Columns and labels:
[1] = Antiproliferative activity against HEK293 cells assessed as inhibition of cell growth measured after 48 hrs by SRB method; format: toxicity, cell-based; conditions: human
[2] = test system: HCT-116; assay: Antiproliferative activity against human HCT-116 cells assessed as inhibition of cell growth at 20 uM by SRB method relative to control; format: functional; design: scale not given: the % may be the effect or the level left
[3] = test system: MDA-MB-231; assay: Induction of ROS generation in human MDA-MB-231 cells measured after 48 hrs by DCFDA staining based fluorescent microscopic analysis; format: functional, cell-based; conditions: dose 4-16 µM
[4] = test system: MDA-MB-231; assay: Induction of apoptosis in human MDA-MB-231 cells assessed as chromatin condensation at 4 to 16 uM measured after 48 hrs by DAPI staining based fluorescent microscopic analysis; format: functional, cell-based; conditions: dose 4-16 µM
[5] = test system: MCF7; assay: Antiproliferative activity against human MCF7 cells assessed as inhibition of cell growth measured after 48 hrs by SRB method; format: functional, cell-based; conditions: MCF7, 48 h
[6] = test system: MDA-MB-231; assay: Induction of apoptosis in human MDA-MB-231 cells assessed as effect on bax/bcl-2 ratio by Western blot analysis; format: functional, cell-based
[7] = test system: HCT-116; assay: Antiproliferative activity against human HCT-116 cells assessed as inhibition of cell growth measured after 48 hrs by SRB method; format: functional, cell-based; conditions: HCT-116, 48 h
[8] = test system: MDA-MB-231; assay: Induction of apoptosis in human MDA-MB-231 cells assessed as upregulation of bax expression by Western blot analysis; format: functional, cell-based
[9] = test system: MDA-MB-231; assay: Inhibition of colony formation in human MDA-MB-231 cells incubated for 24 hrs; format: functional, cell-based; conditions: dose 4-16 µM
[10] = test system: MDA-MB-231; assay: Antiproliferative activity against human MDA-MB-231 cells assessed as inhibition of cell growth measured after 48 hrs by SRB method; format: functional, cell-based; conditions: MDA-MB-231, 48 h
[11] = test system: MCF7; assay: Antiproliferative activity against human MCF7 cells assessed as inhibition of cell growth at 20 uM by SRB method relative to control; format: functional; design: scale not given: the % may be the effect or the level left
[12] = test system: MDA-MB-231; assay: Induction of apoptosis in human MDA-MB-231 cells assessed as cell blebbing at 4 to 16 uM measured after 48 hrs by DAPI staining based fluorescent microscopic analysis; format: functional; conditions: dose 4-16 µM
[13] = Selectivity index, ratio of IC50 for HEK293 cells to IC50 for human MCF7 cells; format: toxicity; conditions: HEK293 cells versus MCF7 cells, read-out: Ratio IC50
[14] = test system: MDA-MB-468; assay: Antiproliferative activity against human MDA-MB-468 cells assessed as inhibition of cell growth at 20 uM by SRB method relative to control; format: functional; design: scale not given: the % may be the effect or the level left
[15] = Selectivity index, ratio of IC50 for HEK293 cells to IC50 for human MDA-MB-231 cells; format: toxicity; conditions: HEK293 cells versus MDA-MB-231 cells, read-out: Ratio IC50
[16] = test system: MDA-MB-231; assay: Induction of apoptosis in human MDA-MB-231 cells assessed as reduction in Bcl-2 expression by Western blot analysis; format: functional, cell-based
[17] = Selectivity index, ratio of IC50 for HEK293 cells to IC50 for human MDA-MB-468 cells; format: toxicity; conditions: HEK293 cells versus MDA-MB-468 cells, read-out: Ratio IC50
[18] = test system: Cell membrane; assay: Induction of mitochondrial membrane potential loss in human MDA-MB-231 cells assessed as reduction in fluorescence measured after 48 hrs by rhodamine-123 dye based fluorescence assay; conditions: dose 4-16 µM
[19] = test system: MDA-MB-468; assay: Antiproliferative activity against human MDA-MB-468 cells assessed as inhibition of cell growth measured after 48 hrs by SRB method; format: functional, cell-based; conditions: MDA-MB-468, 48 h
[20] = test system: A549; assay: Antiproliferative activity against human A549 cells assessed as inhibition of cell growth at 20 uM by SRB method relative to control; format: functional; design: scale not given: the % may be the effect or the level left
[21] = test system: MDA-MB-231; assay: Inhibition of colony formation in human MDA-MB-231 cells assessed as reduction in colony size at 4 to 16 uM incubated for 24 hrs; format: functional, cell-based; conditions: dose 4-16 µM
[22] = test system: MDA-MB-231; assay: Antiproliferative activity against human MDA-MB-231 cells assessed as inhibition of cell growth at 20 uM by SRB method relative to control; format: functional; design: scale not given: the % may be the effect or the level left
[23] = test system: A549; assay: Antiproliferative activity against human A549 cells assessed as inhibition of cell growth measured after 48 hrs by SRB method; format: functional, cell-based; conditions: A549, 48 h
[24] = test system: MDA-MB-231; assay: Inhibition of colony formation in human MDA-MB-231 cells assessed as reduction in number of colonies at 4 to 16 uM incubated for 24 hrs; format: functional, cell-based; conditions: dose 4-16 µM
[25] = test system: MDA-MB-231; assay: Induction of apoptosis in human MDA-MB-231 cells assessed as increase in caspase-3 expression by Western blot analysis; format: functional, cell-based
[26] = test system: MDA-MB-231; assay: Antiproliferative activity against human MDA-MB-231 cells; format: functional, cell-based

SMILES: COc1ccc(/C=C/C(=O)c2ccc(OCC(=O)NCCc3ccccc3)cc2)cc1
IC50 at 48 h [1]: 23.4 µM

IC50 [5]: 16.2 µM
IC50 [7]: 18.3 µM
IC50 [10]: 9.42 µM
Activity [18]: Dose-Dependent Effect
IC50 [19]: 10.1 µM
IC50 [23]: 17.1 µM
SMILES: COc1ccc(/C=C/C(=O)c2ccc(OCC(=O)N3CCCC3)cc2)cc1
Activity [2]: ~60%
Activity [3]: Dose-Dependent Effect
Activity [4]: Active
Activity [6]: Active
Activity [8]: Active
inhibition [9]: Dose-Dependent Effect
Activity [11]: ~60%
Activity [12]: Active
selectivity ratio [13]: 2.41
IC50 at 48 h [1]: 39.1 µM
Activity [14]: ~60%
selectivity ratio [15]: 4.14
Activity [16]: Active
selectivity ratio [17]: 3.85
Activity [20]: ~60%
inhibition [21]: Active
Activity [22]: ~60%
inhibition [24]: Active
Activity [25]: Active

IC50 [7]: 18.9 µM
SMILES: COc1ccc(/C=C/C(=O)c2ccc(OCC(=O)NC3CCCCC3)cc2)cc1

SMILES: COc1cccc(C(=O)/C=C/c2ccc(N(CCCl)CCCl)cc2)c1
IC50 [26]: 3940 µM

IC50 [7]: 10.5 µM
SMILES: COc1ccc(/C=C/C(=O)c2ccc(OCC(=O)NCc3cc(OC)c(OC)c(OC)c3)cc2)cc1
IC50 at 48 h [1]: 15.2 µM

IC50 [10]: 24.1 µM
IC50 [19]: 25.2 µM
IC50 [23]: 35.4 µM
SMILES: COc1ccc(/C=C/C(=O)c2ccc(OCC(=O)Nc3ncccc3Cl)cc2)cc1

IC50 [5]: 22.7 µM
IC50 [7]: 17.4 µM
SMILES: COc1ccc(/C=C/C(=O)c2ccc(OCC(=O)N3CCCCC3)cc2)cc1
IC50 at 48 h [1]: 10.8 µM

IC50 [7]: 15.2 µM
IC50 [23]: 45.4 µM
SMILES: COc1ccc(/C=C/C(=O)c2ccc(OCC(=O)N3CCSCC3)cc2)cc1
